Measurements: patent publication US20220313626A1, “SMALL MOLECULE INHIBITORS FOR TREATING CANCER IN A SUBJECT HAVING TUMORS WITH HIGH INTERSTITIAL PRESSURE” (GUANGZHOU MAXINOVEL PHARMACEUTICALS CO., LTD., priority 2019, published 2022)

System: B16F10 tumor cells
Test: Anti-tumor efficacy in the B16F10 models
Assay type: in vivo
Conditions: for TGI / Tumor Volume: BID, 20 days
Description: Materials required for the experiment: Antibody: mouse PD-1 antibody, Product specifications: 7.09 mg/mL (50 mg/mL), Lot No.: 695318A1 purchased from BioXcell, storage at 4 °C. Experimental animals: 60 C57BL/6 mice, female, 6˜8 weeks old, 17˜21 g, purchased from Shanghai Lingchang Biotechnology Co. Ltd. Formulation materials: castor oil (Cremophor RH40) , CAS No.: 61788-85-0, Lot No.: 29761847G0, purchased from Shanghai Xietai Chemical Co. Ltd.; β-cyclodextrin (SBE-β-CD), CAS No.: 128446-35-5, Lot No.: 20180110, purchased from Shanghai Shaoyuan Chemical Co. Ltd.; DMEM culture medium, Art. No.: 11995-065, Lot No.:2025378, purchased from Gibco Co. Ltd.; PBS, Art. No.: SH30256.01, Lot No.: AB10141338, purchased from HyClone Co. Ltd.; Fetal bovine serum: Art. No.: 04-002-1A, Lot No.: 1625436, purchased from Boehringer Ingelheim Co. Ltd.; Methyl cellulose (MC), Art. No.: M7027-250G, Lot No.: 079K0054V, purchased from Sigma.
Cell preparation and implantation: The B16-F10 tumor cells (ATCC CRL6475™) were maintained in vitro as a monolayer culture in DMEM medium supplemented with 10% heat inactivated fetal bovine serum at 37° C. in an atmosphere of 5% CO2 in air. The tumor cells were routinely subcultured three times weekly by trypsin-EDTA treatment. The cells growing to a confluency around 70%-80% were harvested and counted for tumor inoculation.
Tumor cell inoculation and group administration: The 100 uL cell suspension containing 1×10^6 B16F10 tumor cells (cells suspended in base DMEM medium) was inoculated into the right subcutaneous of mice. On the second day after inoculation, according to the order of tumor inoculation, stratified randomization was used to group and start the administration on the day of grouping.
Preparation of test substances: Preparation of formulation: 700 mL of sterile water was added into the volumetric flask with magnetic stirring to have a vortex. 100 g of castor oil (Cremophor RH40) was added with a spoon slowly into the vortex and the solution was kept stirring. 200 g of β-cyclodextrin (SBE-β-CD) was added while the solution was kept stirring until the solution was clear, and the total volume was set to 1000 mL, which contained 10% (w/v) Cremophor RH40+20% (w/v) an aqueous solution of SBE-β-CD.
Preparation of compound suspension: 169.16 mg compound was weighed, 14.012 mL 10% (w/v) Cremophor RH40+20% (w/v) SBE-β-CD aqueous solution were added, and the suspension solution with a concentration of 12.0 mg/mL was obtained by fully mixing with magnetic stirring. 6.0 mL of the compound suspension solution with concentration of 12.0 mg/mL was pipetted and 6.0 mL aqueous formulation solution was added. The suspension solution with a concentration of 6.0 mg/mL was obtained by fully mixing with magnetic stirring. 6.0 mL of the compound suspension solution with concentration of 6.0 mg/mL was pipetted and 6.0 mL aqueous formulation solution was added. The suspension solution with a concentration of 3.0 mg/mL was obtained by fully mixing with magnetic stirring. The compound suspension solution was prepared once a day.
Preparation of mPD-1 antibody: 0.564 mL mPD-L1 antibody (7.09 mg/mL) original solution was pipetted and […] PBS solution was added. The solution was fully mixed and the final concentration of 1 mg/mL solution was obtained.
Procedure: The mice in the vehicle group were weighed and recorded in the electronic balance according to their numbers. The mice in the vehicle group were given prepared formulation solution twice a day by oral administration according to their body weight with a capacity of 0.1 mL/10 g. Each mouse spent about 20 seconds and 10 mice in each group shared for about 5 minutes.
The mice in the antibody (10 mg/kg) group were weighed and recorded in the electronic balance according to their numbers. The mice in the antibody group were given prepared antibody solution twice a week by IP administration according to their body weight with a capacity of 0.1 ml/10 g. […]

[1] = B16F10, C57BL/6 mice, 30 mg/kg, PO
[2] = B16F10, C57BL/6 mice, 60 mg/kg, PO
[3] = B16F10, C57BL/6 mice, 120 mg/kg, PO

## Cc1c(/C=C/c2cc(CN[C@@](C)(CO)C(=O)O)ccc2C(F)(F)F)cccc1-c1ccccc1 [Compound]
B16F10, C57BL/6 mice
  growth of subcutaneous transplanted melanoma cell line in mice: significantly inhibit the growth
[1]
  TGI: 35.59%
  Tumor Volume: 795.99 ± 112.92 mm^3
[2]
  TGI: 38.87%
  Tumor Volume: 755.48 ± 155.85 mm^3
[3]
  TGI: 47.35%
  Tumor Volume: 650.67 ± 157.53 mm^3
C57BL/6 mice, PO, BID up to 120 mg/kg
  tolerability (adverse reactions): well tolerated
